Measurements reported in US20230088286A1, “USP7 INHIBITOR FOR USE IN THE TREATMENT OF CANCER” (ALMAC DISCOVERY LIMITED, priority 2020, published 2023).
Residues, ends and D or L forms follow the SMILES beside them. *: point of attachment. Cbz = O=C(OCc1ccccc1)*

Columns and labels:
[1] = system: primary human fibroblasts (HDF) in hypoxic chamber; assay: sVEGF ELISA in primary fibroblasts under hypoxia; format: cell-based; details: 48 h
Text: FIG. 9: USP7 inhibition decreases VEGF levels in fibroblasts under hypoxia.
In response to wounding and during tumour growth, activated fibroblasts secrete synthesizers and modifiers of the ECM but also soluble angiogenic growth factors such as VEGF. Although VEGF gene expression can be controlled by multiple transcription factors, its major regulator is hypoxia-inducible factor 1 (HIF-1). HIF-1 mediates activation of VEGF transcription in response to hypoxia in solid tumours and in various malignant cell lines.
To assess its potency in a functional assay, HDF were treated with vehicle or various concentrations of USP7 inhibitor ADC-159 and incubated for 48 hours in hypoxic chamber. Cell culture supernatants were collected, and secreted VEGF was measured by ELISA.
(§1) For the co-culture experiments, 5×10^4 cancer cells were seeded in transwell in 0.5 mL complete growth medium and placed on the top of 0.1×10^6 fibroblasts plated in 12-well in 1 mL low serum growth media overnight. Following day cancer cells were washed with PBS and media replaced with reduced (1%) serum growth media. 0.5×10^6 PBMC were plated on top of fibroblasts, incubated for 45 min and activated with CD3 (1 μg/ml final concentration) and CD28 (5 μg/ml final concentration). […] Monoculture experiments, 0.1×10^6 cells were seeded in 12-well in 1 mL of complete growth media (cancer cells) or low serum growth media (fibroblasts) and incubated overnight. […] Afterwards, cell culture media was collected, cell debris were removed by centrifugation the concentration of VEGF in the cell culture supernatants was measured using the human/mouse VEGF immunoassay Quantikine ELISA kit (R&D systems, Minneapolis, Minn., USA) according to the manufacturer's instructions. For the intracellular VEGF detection, total protein concentration was determined by BCA (Pierce Chemical, USA) and VEGF levels determined using the same kit described above.

HIF-1α = assay: Ubiquitination assay, TUBE pull-down of polyubiquitinated HIF-1α; format: cell-based, human; details: HDF, hypoxia; AD-04 1 μM, MG132 10 μM, 1 hour
Method: Given HIF-1α stability is known to be regulated at the protein level by ubiquitination, we investigated whether USP7 inhibition modulates HIF-1α polyubiquitination. […] Cells were harvested, lysed and polyubiquitinated proteins pulled down using two types of Tetra Ubiquitin Binding Entities (TUBES); with equal affinity for K48/K63 or 10 times more affinity for […]. Samples were analysed by immuno-blot using a HIF-1α antibody. […] These findings indicate that USP7 inhibition results in K48 polyubiquitination of HIF-1α and consequently, its proteasomal-mediated degradation.
Cells were lysed in a buffer containing 50 mM Tris-HCl, pH 7.5, 150 mM NaCl, 1 mM EDTA, 1% NP-40, 10% Glycerol, 50 mM NaF, 5 mM sodium pyrophosphate, 10 mM glycerol phosphate, 1 mM sodium orthovanadate, protease and phosphatase inhibitor tablet and 50 uM PR-619. Lysates were pre-cleared by centrifugation at 4° C. for 15 mins at 16,000× g and protein concentration determined using BCA method. 20 ul of samples was taken as input. Pre-cleared supernatant containing 0.5 mg of total protein was added to 20 ul equilibrated Agarose-TUBE 1 or TUBE 2 beads (Life Sensors) and incubated for 2 hours at 4° C. on a rocker platform. Beads were collected by low speed centrifugation (1000-5000× g, 4° C.) for 5 minutes and supernatant taken as FT. Beads were washed twice with 1 ml TBS-T (20 mM Tris-HCl, pH 8.0, 0.15M NaCl, 0.1% Tween-20) and collected by low speed centrifugation. Finally, beads were resuspended in 30 ul of SDS reducing sample buffer and boiled for 10 min at 95° C.

[2] = system: activated primary fibroblasts WI38, IMR90 and HDF; assay: sVEGF ELISA in activated primary fibroblasts; format: cell-based, human; details: cancer cells, immortalized fibroblasts and FGF-2 activated primary fibroblasts, normoxia or hypoxia, 48 hours
Text: FIG. 5: USP7 inhibition decreased secreted VEGF levels in activated fibroblasts. The USP7-mediated decrease in VEGF secretion observed in the co-cultures can be solely attributed to modulation of secreted VEGF in primary fibroblasts.
(FIG. 4). […] During the wound healing process or following stimulation by acute or chronic inflammatory signals, fibroblasts acquire an activated phenotype (referred to as myofibroblasts). Once activated, myofibroblasts proliferate and migrate, show contractile activity, exert physical forces to modify tissue architecture and become transcriptionally active leading to the secretion of cytokines, chemokines and extra-cellular matrix (ECM) components. In the tumour microenvironment, the majority of residual fibroblasts become activated and are known as cancer associated fibroblasts (CAF). In order to generate a myofibroblast phenotype, WI38, IMR90 and HDF were co-cultured with anti-CD3/anti-CD28 stimulated PBMCs or were stimulated by FGF-2 or TGFβ. […] The USP7 inhibitor-mediated decrease in VEGF secretion was only observed in primary fibroblasts; immortalized lung fibroblasts (WI38-VA13) were insensitive to USP7 inhibitor treatment, probably due to the destabilized p53 in the SV-40 immortalized fibroblasts (FIG. 7).
as §1

[3] = system: CT-26 cells in BALB/C mice; assay: CT-26 syngeneic tumour model (AD-04 study)
Method: FIG. 30: Effect of USP7 on the tumour microenvironment in vivo.
For subcutaneous tumour implantation, CT26 cells were injected subcutaneously (1×10^6cells in 200 μL of RPMI) in the right flank of 8- to 10-week-old BALB/c female mice. […] Tumour volume (in mm^3) was measured twice a week with a digital caliper and calculated by the following formula: volume=(width)^2×length/2. Body weight was measured twice a week. […]

MMP-7 = MMP-7 in supernatants of HDF invasion assay (Luminex); format: cell-based, human; details: invading HDF, 96 hours
Method: The scratch wound cell invasion assay was used to measure the ability of primary human fibroblasts to invade through Matrigel® basement membrane. Cell culture supernatants from invasion assay were collected after 96 hours and MMP-7 levels were measured using Luminex®.
To further explore whether USP7 inhibition modulates MMP levels in invading fibroblasts, cell culture supernatants from HDF invasion assay were collected and presence of various MMP was detected using Luminex® Multiplex assay.
(§2) Concentrations of MMP2 and MMP7 were determined in cell culture supernatants in triplicates using Luminex human cytokine/chemokine multiplex kits (Millipore, St. Charles, Mo., USA) according to the manufacturer's protocol.

MMP-2 = MMP-2 in supernatants of HDF and HUVEC co-culture (Luminex); format: cell-based, human; details: supernatants after 14 days
Method: Cell culture supernatants from tube formation were collected and MMP-2 levels were measured using Luminex®.
Next, the underlying mechanism of tube formation inhibition was investigated. […] To determine whether secretion of MMP-2 is modulated by USP7 inhibition, supernatants from HUVEC and HDF co-cultures were collected after 14 days.
as §2

Compound | VEGF secretion under hypoxia [1] | secretion of VEGF (benchmark against MDM2 antagonists) [2] | further results
O=C(c1cnc(C2CC2)o1)N1CCC(O)(Cn2cnc3c(cc(Cl)n3-c3ccc4c(c3)CCO4)c2=O)CC1 [ADC-160, 6-Chloro-3-((1-(2-cyclopropyloxazole-5-carbonyl)-4-hydroxypiperidin-4-yl)methyl)-7-(2,3-dihydrobenzofuran-5-yl)-3,7-dihydro-4H-pyrrolo[2,3-d]pyrimidin-4-One] | Comparable results | – | –
CC1(C(=O)N2CCC(O)(Cn3cnc4c(cc(Cl)n4-c4ccc5c(c4)OCC5)c3=O)CC2)CC1 [ADC-198, 6-Chloro-7-(2,3-dihydrobenzofuran-6-yl)-3-[[4-hydroxy-1-(1-methylcyclopropanecarbonyl)-4-piperidyl]methyl]pyrrolo[2,3-d]pyrimidin-4-One] | Comparable results | – | –
O=C(c1cnc(C2CC2)o1)N1CCC(O)(Cn2cnc3c(cc(Cl)n3-c3ccc4c(c3)OCC4)c2=O)CC1 [ADC-199, 6-Chloro-3-((1-(2-cyclopropyloxazole-5-carbonyl)-4-hydroxypiperidin-4-yl)methyl)-7-(2,3-dihydrobenzofuran-6-yl)-3,7-dihydro-4H-pyrrolo[2,3-d]pyrimidin-4-One] | Comparable results | – | –
CC1(C(=O)N2CCC(O)(Cn3cnc4c(cc(Cl)n4-c4ccc5c(c4)OCO5)c3=O)CC2)CC1 [ADC-556, 7-(Benzo[d][1,3]dioxol-5-yl)-6-chloro-3-((4-hydroxy-1-(1-methylcyclopropane-1-carbonyl)piperidin-4-yl)methyl)-3,7-dihydro-4H-pyrrolo[2,3-d]pyrimidin-4-One] | Comparable results | – | –
CC(C)C[C@@H](C=O)NC(=O)[C@H](CC(C)C)NC(=O)[C@H](CC(C)C)NC(=O)OCc1ccccc1 [MG132, reference compound] (Cbz-Leu-Leu-Leu-aldehyde) | – | – | K63/K48 polyubiquitinated HIF-1α (HIF-1α): increased polyubiquitination
COc1ccc(C2=N[C@@H](c3ccc(Cl)cc3)[C@@H](c3ccc(Cl)cc3)N2C(=O)N2CCNC(=O)C2)c(OC(C)C)c1 [Nutlin-3a] | – | not able to modulate | –
CCOc1cc(C(C)(C)C)ccc1C1=N[C@@](C)(c2ccc(Cl)cc2)[C@@](C)(c2ccc(Cl)cc2)N1C(=O)N1CCN(CCCS(C)(=O)=O)CC1 [RG7112] | – | not able to modulate | –
CC(C)(C)C[C@@H]1N[C@@H](C(=O)N[C@H]2CC[C@H](O)CC2)[C@H](c2cccc(Cl)c2F)[C@]12C(=O)Nc1cc(Cl)ccc12 [SAR405838] | – | not able to modulate | –
CNC(=O)c1cc(Oc2ccc(NC(=O)Nc3ccc(Cl)c(C(F)(F)F)c3)cc2)ccn1 [Sorafenib, reference compound] | – | – | tumour growth inhibition ([3]; highest AD-04 dose (subcutaneous infusion), Sorafenib oral positive control, day 15 post tumour implantation): 58%; tolerability, bodyweight of tumour-bearing mice ([3]; mouse, in vivo): no significant bodyweight loss
Avastin: anti-VEGF monoclonal antibody bevacizumab [reference compound] | – | – | MMP-7 levels (MMP-7): did not have significant effect; MMP-2 levels (MMP-2): did not have significant impact
